This is an account of results in paper PMC7055300, “Theileria parasites subvert E2F signaling to stimulate leukocyte proliferation” (Scientific Reports, 2020).

Data set [1] relates to E2F activity in T. annulata-infected macrophages. The data set can be described thus: E2F-luc reporter assay, T. annulata-transformed macrophages (Ode). It counts as cell-based, bovine. As to conditions: 1 μM penetrating peptide, 2 hrs. As for the experimental part:
(§1) Since no system for genetic manipulation is available yet for intracellular Theileria, we instead incubated T. parva- and T. annulata-infected bovine leukocytes (transfected with a luciferase reporter regulated from an E2F promoter) with synthesized peptides containing the RB-binding LXCXE motif, or a mutated LXNXE negative control, linked to a cell-penetrating peptide. If the LXCXE-containing peptide can regulate E2F activity in a sequence-specific manner, we would expect it to increase E2F activity, and that this effect would be reduced or abrogated in the mutated LXNXE peptide-treated group.
(a) TpMD409B.2 cells were transfected with E2F-luc (WT = wild-type E2F binding construct), or mutated E2F-luc constructs (labeled ‘mutated’) together with a CMV-lacZ plasmid to normalize for transfection efficiency. Luciferase and β-galactosidase activities were measured 24 hrs after transfection. E2F-luc relative luciferase activity normalized to mE2F-luc. Shown is the average of 3 independent experiments with standard deviation. BL20 or TBL20 cells were treated with (b) 1μM of penetrating peptides ([…]-K(FITC)) containing the TpGcpE LXCXE motif, or an LXNXE control ([…]-K(FITC)) or (c) E2F inhibitor or DMSO control, and then counted by hemacytometer after the indicated timepoints. […] Then, cells were treated with penetrating peptides as in (b) for 2 hrs and luciferase activity was quantified. […]
On the technique in general: Reporter assays use an easily measured gene product as a stand-in for the process of interest.

Data set [2] concerns RB-HDAC1. Put plainly: RB-HDAC1 binding with penetrating peptides. The data set is classed as cell-based. As to conditions: discussion statement.
Data set [3] relates to BL20/TBL20 cells. It counts as cell-based, bovine. As to conditions: penetrating peptides, 24 h and 48 h; data not shown. As for the experimental part:
Since the LXCXE peptide can induce E2F activity, we investigated whether it could, on its own, increase bovine leukocyte proliferation. To extend our observations to T. annulata-infected leukocytes, we incubated T. annulata-infected B cells with WT or mutated LXNXE peptides and counted cell numbers at 24 h and 48 h.
The amino acid sequence of RB-1 based on the parasite sequence ([…]) was synthesized. Cysteine in wild type RB1 was replaced by an Asparagine (N; in bold […]). The penetrating peptide to facilitate cell entry is underlined. 3 different concentrations of peptides were used for 2 h to determine the minimum effective concentration (1 μM) with minimum toxic effect, which was used to perform each experiment as indicated.

The test system of data set [4] is E2F activity in T. annulata-infected B cells. The data set can be described thus: E2F-luc reporter assay, T. annulata-infected B cells (TBL20). It counts as cell-based, bovine. As for the experimental part: as §1
(a) TpMD409B.2 cells were transfected with E2F-luc (WT = wild-type E2F binding construct), or mutated E2F-luc constructs (labeled ‘mutated’) together with a CMV-lacZ plasmid to normalize for transfection efficiency. Luciferase and β-galactosidase activities were measured 24 hrs after transfection. E2F-luc relative luciferase activity normalized to mE2F-luc. Shown is the average of 3 independent experiments with standard deviation. BL20 or TBL20 cells were treated with (b) 1μM of penetrating peptides ([…]-K(FITC)) containing the TpGcpE LXCXE motif, or an LXNXE control ([…]-K(FITC)) or (c) E2F inhibitor or DMSO control, and then counted by hemacytometer after the indicated timepoints. Shown is the average of 3 independent experiments with standard deviation. Then, either (d) virulent Ode T. annulata-transformed macrophages, or (e) BL20/TBL20 T. annulata-transformed cells were transfected with E2F-luc plasmid (or mutated E2F-luc as in (c)) and incubated for 24 hrs at 37 °C. Then, cells were treated with penetrating peptides as in (b) for 2 hrs and luciferase activity was quantified. […]
TpMD409.B2 cells were co-transfected with 20 μg (E2F-luc, mE2F-luc), or 10 μg (cyclin E-luc) reporter construct, 20 μg of expression vector and 5 μg of pCMV-lacZ, where indicated. Luciferase and β-galactosidase activities were measured 24 h after transfection according to previously published procedures. […]

Data set [5] relates to T. annulata-infected TBL20 cells. The data set can be described thus: Cell proliferation, T. annulata-infected B cells (TBL20), hemacytometer count. The data set is classed as cell-based, bovine. How it is done: (a) TpMD409B.2 cells were transfected with E2F-luc (WT = wild-type E2F binding construct), or mutated E2F-luc constructs (labeled ‘mutated’) together with a CMV-lacZ plasmid to normalize for transfection efficiency. Luciferase and β-galactosidase activities were measured 24 hrs after transfection. E2F-luc relative luciferase activity normalized to mE2F-luc. Shown is the average of 3 independent experiments with standard deviation. BL20 or TBL20 cells were treated with (b) 1μM of penetrating peptides ([…]-K(FITC)) containing the TpGcpE LXCXE motif, or an LXNXE control ([…]-K(FITC)) or (c) E2F inhibitor or DMSO control, and then counted by hemacytometer after the indicated timepoints. Shown is the average of 3 independent experiments with standard deviation. Then, either (d) virulent Ode T. annulata-transformed macrophages, or (e) BL20/TBL20 T. annulata-transformed cells were transfected with E2F-luc plasmid (or mutated E2F-luc as in (c)) and incubated for 24 hrs at 37 °C. Then, cells were treated with penetrating peptides as in (b) for 2 hrs and luciferase activity was quantified. Data shown are representative of three independent experiments done with biological duplicates, with mean + standard deviation (*P-value < 0.05 compared to untreated; ^‡P-value < 0.05 compared to its respective BL20 control).
The TpMD409.B2 cell line is a T. parva Muguga-infected B-cell clone (B2) whose establishment, phenotypic characteristics and culture conditions have been described[25]–[27]. BL20 cells are a retrovirus-transformed B cell line isolated from an infected cow. To eliminate the parasite, cells were treated for the indicated time with buparvaquone (50 ng/ml, 1 mg/ml stock in ethanol; Sigma). To inhibit E2F activity, cells were treated for the indicated time with HLM006474 (10 μM in DMSO, Sigma), or DMSO (10μM; Sigma) as a control. The T. annulata-infected cell lines BL20 (B cell), as well as Ode (macrophage) cell lines are well described and characterized.
The amino acid sequence of RB-1 based on the parasite sequence ([…]) was synthesized. Cysteine in wild type RB1 was replaced by an Asparagine (N; in bold […]). The penetrating peptide to facilitate cell entry is underlined.

Data set [6] has as its system RB pocket domain / E2F-1. Put plainly: SPR competition of TpGcpE with E2F-1 for the RB pocket domain. It counts as binding, human. As to conditions: TpGcpE bound to saturation, then E2F-1 added. The source says:
In order to map the site of the interaction of the LXCXE motif with the RB pocket domain, we used SPR to test the ability of full-length TpGcpE protein to compete with two proteins that have known, well-characterized interactions with the RB pocket domain, E2F1 and HDAC1. The RB pocket domain was coupled to the surface of the sensor chip, and purified, recombinant, full-length TpGcpE was introduced into the flow channel to bind the RB pocket domain to saturation; then either purified, recombinant E2F-1 or HDAC1 was added to the channel and the response curve recorded to determine if they competed withTpGcpE binding.
(a) A kinetic surface plasmon resonance binding curve (sensorgram) of full-length HDAC1 to the RB pocket domain is shown. (b) Kinetic binding curve of full-length HDAC1 in competition with full-length TpMuguga02_00667 (TpGcpE). (c) A sensorgram of full-length E2F1 to the RB pocket domain is shown. […]
(§2) Kinetics analysis of binding. […] The analytes (60 µl each, 0–25 µM in HBS-EP buffer with 0.05% P20) were injected into flow cell and the association of analyte and ligand were recorded respectively by surface plasmon resonance (SPR) with a Biacore T200 (Biacore, Inc., New Jersey). […]
(§3) Data analysis. Sensorgrams of the interaction generated by the instrument were analyzed using the software BIAeval 3.2 (Biacore Inc., New Jersey). […]

Data set [7] concerns the target T1, Retinoblastoma-1 (RB) pocket domain (Homo sapiens, UniProt P06400).
T1 construct: Recombinant, purified RB pocket domain was coupled to the surface of the sensor chip; purchased LDBiopharma HTF-1035
T1 sequence (P06400 373-771 limits assumed): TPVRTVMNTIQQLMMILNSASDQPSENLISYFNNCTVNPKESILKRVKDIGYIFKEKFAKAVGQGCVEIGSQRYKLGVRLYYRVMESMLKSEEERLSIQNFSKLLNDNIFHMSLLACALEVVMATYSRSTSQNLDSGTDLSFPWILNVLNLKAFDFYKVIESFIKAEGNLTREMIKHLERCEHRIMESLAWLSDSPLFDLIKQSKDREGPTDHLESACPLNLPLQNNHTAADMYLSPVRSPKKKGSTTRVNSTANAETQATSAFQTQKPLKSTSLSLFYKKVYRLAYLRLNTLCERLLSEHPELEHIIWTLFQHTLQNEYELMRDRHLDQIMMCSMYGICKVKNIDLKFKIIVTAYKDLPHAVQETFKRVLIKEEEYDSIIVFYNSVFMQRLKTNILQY
Put plainly: Surface plasmon resonance binding to RB pocket domain. As to conditions: SPR, RB pocket domain on sensor chip; sequence-scrambled peptides as negative controls.
Description: Since the proliferation of T. parva-infected host cells is thought to be critical for the pathogenesis of infection, we investigated whether synthesized peptides, each 9 to 19 amino acids long and containing these 15 T. parva motifs, could bind to RB (Supplementary Table 1). Surface plasmon resonance (SPR) was used to screen these peptides for specific RB1 pocket domain-binding activity. Recombinant, purified RB pocket domain was coupled to the surface of the sensor chip, and purified peptides were introduced at various concentrations to quantify kinetics if response curves indicated a detectable protein-protein interaction. Sequence-scrambled peptides were used as negative controls to exclude false-positive signals.
Immobilization of human RB1 protein to CM5 chip
Surface preparation. […]
as §2, §3

Turning to “VKKKKIKREIKIYIEEVFTPLVLKCKELK-K(FITC) [LXCXE peptide, penetrating peptide containing the TpGcpE LXCXE motif, used in cells]”, the E2F reporter activity result in data set [1] was “increased E2F activity”; in data set [4] (T. annulata-infected B cells, E2F-luc, 1 μM penetrating peptide, 2 hrs), “increased E2F activity”. In addition, the RB-HDAC1 binding entry in data set [2] is “block RB-HDAC1 binding”. The cell viability entry in data set [3] is recorded as “no effect on cell viability”. In addition, the E2F-driven transcription entry in data set [4] (discussion statement, infected leukocytes) is recorded as “activate E2F-driven transcription”. Further, the “proliferation (cell number)” value in data set [5] (T. annulata-infected B cells, 1 μM penetrating peptide, 24 h and 48 h, average of 3 independent experiments) is “induced a significant increase in proliferation”. In addition, in data set [5] (discussion statement), the infected leukocyte proliferation result was “promote infected leukocyte proliferation”.

Turning to “E2F1: host E2F transcription factor, known RB pocket domain binder”, in data set [6], the “competition with E2F-1 for RB pocket domain binding” value is given as “does not compete with full-length TpGcpE for binding to the RB pocket domain”. In data set [7], the “RB binding in words” value was “binding to the RB pocket domain”.
